Where “and” joins values, the source holds several entries; their conditions need not be identical. Equal entries are not always repeated.
System: mixture of Pseudomonas aeruginosa, Klebsiella pneumoniae, Staphylococcus aureus, and Bacillus subtilis
Experiment: Growth inhibition assay (microtiter plate-based synergy assay)
Type: cell-based
Details: 24 h; for I90 value: single active, concentration for ~90% inhibition of growth
Excerpt: Growth Inhibition Assay. […] Regardless of the mechanism of action, the impact of a biocide (or combination of biocides) can be measured over time on the basis of an increase in the size of the community.
The assay measures the efficacy of one or more biocides at preventing growth of a consortium of bacteria in a dilute mineral salts medium. The medium contains (in mg/l) the following components: FeCl3.6H2O (1); CaCl2.2H2O (10); MgSO4.7H2O (22.5); (NH4)2SO4 (40); KH2PO4 (10); K2HPO4 (25.5); Yeast Extract (10); and glucose (100). After all components are added to deionized water, the pH of the medium is adjusted to 7.5. Following filter sterilization, aliquots are dispensed in 100 ul quantities to sterile microtiter plate wells. Dilutions of 2,2-dibromomalonamide (“DBMAL”) and/or “Biocide B” are then added to the microtiter plate. After preparing the combinations of actives as illustrated below, each well is inoculated with 100 μl of a cell suspension containing ca. 1×10^6 cells per milliliter of a mixture of Pseudomonas aeruginosa, Klebsiella pneumoniae, Staphylococcus aureus, and Bacillus subtilis. The final total volume of medium in each well is 300 μl. Once prepared as described herein, the concentration of each active ranges from 25 ppm to 0.195 ppm as illustrated in Table 1. The resulting matrix allows testing of eight concentrations of each active and 64 combinations of actives in the ratios (of actives).
Controls (not shown) contain the medium with no biocide added. After preparing the combinations of actives as illustrated above, each well is inoculated with 100 μl of a cell suspension containing ca. 1×10^6 cells per milliliter of a mixture of Pseudomonas aeruginosa, Klebsiella pneumoniae, Staphylococcus aureus, and Bacillus subtilis. The final total volume of medium in each well is 300 μl.
Immediately after the microtiter plates are prepared, the optical density (OD) readings for each well is measured at 580 nm and the plates are then incubated at 37° C. for 24 hr. After the incubation period, the plates are gently agitated before OD580 values are collected. The OD580 values at T0 are subtracted from T24 values to determine the total amount of growth (or lack thereof) that occurs. These values are used to calculate the percent inhibition of growth caused by the presence of each biocide and each of the 64 combinations. A 90% inhibition of growth is used as a threshold for calculating synergy index (SI) values with the following equation: Synergy Index=MDBMAL/CDBMAL+MB/CB
where • CDBMAL: Concentration of DBMAL required to inhibit ˜90% of bacterial growth when used alone • CB: Concentration of biocide (B) required to inhibit ˜90% of bacterial growth when used alone. • MDBMAL: Concentration of DBMAL required to inhibit ˜90% of bacterial growth when used in combination with biocide (B). • MB: Concentration of biocide (B) required to inhibit ˜90% of bacterial growth when used in combination with DBMAL The SI values are interpreted as follows: • SI<1: Synergistic combination • SI=1: Additive combination • SI>1: Antagonistic combination
In the Examples below, the amounts of biocides in the solution are measured in mg per liter of solution (mg/l). Since solution densities are approximately 1.00, the mg/l measurement corresponds to weight ppm. Both units may therefore be used interchangeably in the Examples.

Row | SMILES | % Inhibition of growth (single active at 0.19 mg/l) [%] | % Inhibition of growth (single active at 0.39 mg/l) | % Inhibition of growth (single active at 0.78 mg/l) [%] | % Inhibition of growth (single active at 1.56 mg/l) [%] | % Inhibition of growth (single active at 3.13 mg/l) [%] | % Inhibition of growth (single active at 6.25 mg/l) [%] | % Inhibition of growth (single active at 12.5 mg/l) | % Inhibition of growth (single active at 25.0 mg/l) [%] | inhibition at 12.5 µg/mL (single active at 12.5 mg/l) [%] | inhibition at 25 µg/mL (single active at 25.0 mg/l) [%] | I90 value [mg/L] | inhibition at 7.81 µg/mL (single active at 7.81 mg/l) [%] | inhibition at 15.63 µg/mL (single active at 15.63 mg/l) [%] | inhibition at 31.25 µg/mL (single active at 31.25 mg/l) [%] | inhibition at 62.5 µg/mL (single active at 62.5 mg/l) [%] | inhibition at 125 µg/mL (single active at 125 mg/l) [%] | inhibition at 250 µg/mL (single active at 250 mg/l) [%] | inhibition at 500 µg/mL (single active at 500 mg/l) [%] | inhibition at 1000 µg/mL (single active at 1,000 mg/l) [%]
1 | CC1(C)C(=O)N(Cl)C(=O)N1Br [BCDMH, bromochlorodimethylhydantoin] | 0 | 0% | 5 | 0 | 2 | 100 | 98% | 99 | – | – | – | – | – | – | – | – | – | – | –
2 | [O][Cl+][O-] [ClO2, chlorine dioxide] | 12 | 26% | 35 | 63 | 75 | 99 | 100% | 98 | – | – | – | – | – | – | – | – | – | – | –
3 | NC(=O)C(Br)(Br)C(N)=O [DBMAL, 2,2-dibromomalonamide] | – | 4% and 0% and 5% and 8% and 2% | – | – | – | 9 | 99% and 92% | – | 100 | 98 | 12.5 | – | – | – | – | – | – | – | –
4 | O=c1nc([O-])n(Cl)c(=O)n1Cl.[Na+] [DCI, dichloroisocyanurate] | 0 | 0% | 0 | 98 | 100 | 97 | 100% | 100 | – | – | – | – | – | – | – | – | – | – | –
5 | OO [H2O2, hydrogen peroxide] | – | – | – | – | – | – | – | – | – | – | – | 5 | 2 | 0 | 12 | 6 | 1 | 100 | 89
6 | OBr [HOBr, hypobromous acid] | 0 | 0% | 0 | 0 | 22 | 57 | 99% | 100 | – | – | – | – | – | – | – | – | – | – | –
7 | NCl [NH2Cl, monochloramine] | 4 | 0% | 2 | 97 | 96 | 94 | 97% | 95 | – | – | 1.56 | – | – | – | – | – | – | – | –
8 | O=c1n(Cl)c(=O)n(Cl)c(=O)n1Cl [TCI, trichloroisocyanurate] | 0 | 0% | 0 | 97 | 96 | 99 | 97% | 94 | – | – | – | – | – | – | – | – | – | – | –

— patent publication US9392789B2, “Compositions of dibromomalonamide and their use as biocides” (Dow Global Technologies LLC, priority 2009, dated 2016)
